Data taken from patent US20250171414A1, “COMPOUND SERVING AS MASP-2 INHIBITOR, PHARMACEUTICAL COMPOSITION, PREPARATION METHOD THEREFOR, AND USE THEREOF” (WUHAN CREATERNA SCIENCE AND TECHNOLOGY CO., LTD., priority 2022, published 2025).
Where two headings read alike, the source gives them in different places.

Tests used:
[1] = In vivo pharmacokinetic study in SD rats; details: clear
Method: After adaptive feeding, the SPF SD rats were each subjected to a single administration of 1 mg/kg or 3 mg/kg of the compound of the present disclosure intragastrically or by tail vein bolus injection. Plasma was collected at specific time points after administration, and the concentration of the compound in plasma was detected by LC-MS/MS (AB Sciex Qtrap 4500).

[2] = tested on: lectin pathway (MBL) in human serum; assay: Inhibition of activity of lectin pathway (MBL) in human serum (WIESLAB Complement System MBL Pathway kit); type: biochemical; details: 1% human serum
Method: The inhibition of the activity of the lectin pathway (MBL) in human serum by compounds was detected using a WIESLAB® Complement System MBL Pathway kit (SVAR, COMPLMP320). Test compounds were each serially diluted in a buffer (Diluent MP), and 1% human serum was incubated with the diluted compound solution for 15 min at room temperature. 100 μL of the mixture was added to a microplate and incubated at 37° C. for 60 min. The liquid in the wells was discarded, and the microplate was washed three times with a washing solution. A Conjugate antibody solution was added at 100 μL/well, and the resulting mixture was incubated for 30 min at 25° C. The liquid in the wells was discarded, and the microplate was washed three times with a washing solution; a substrate solution was added at 100 μL/well, and the resulting mixture was incubated for 30 min at 25° C.; the terminator was added at 50 μL/well, and the absorbance at 405 nm was detected within 30 min by using a microplate reader.

[3] = Sprague-Dawley (SD), rat, plasma, 1 mg/kg, IV, not fasting
[4] = Sprague-Dawley (SD), rat, plasma, 1 mg/kg, IV, not fasting, read-out: Cmax
[5] = Sprague-Dawley (SD), rat, plasma, 1 mg/kg, PO, fasting
[6] = Sprague-Dawley (SD), rat, plasma, 1 mg/kg, PO, fasting, read-out: Cmax

Compound | AUC(0-t) [1, 3] [ng·h/mL] | half-life [1, 3] [h] | Cmax [1, 4] [ng/mL] | AUC(0-t) [1, 5] [ng·h/mL] | half-life [1, 5] [h] | Cmax [1, 6] [ng/mL] | IC50 [2] [nM] | other results
C[C@H](NC(=O)C1C=C(c2ccc(F)cc2)CCN1)C(=O)N[C@@H]1CCc2nc(N)ccc21 (single isomer, unassigned) [Compound L064-IS-02] | 15600 ± 5150 | 4.18 ± 1.02 | 16000 ± 2070 | 2630 ± 245 | 5.57 ± 1.46 | 875 ± 155 | 7.57 | 
C[C@H](NC(=O)[C@@H]1C=C(c2ccc(Cl)cc2)CCN1)C(=O)N[C@@H]1CCc2nc(N)ccc21 (single isomer, unassigned) [Compound L066-IS-02] | 17100 ± 4640 | 4.51 ± 1.29 | 15900 ± 1070 | 3240 ± 233 | 4.93 ± 0.51 | 1140 ± 164 | 9.52 | 
C[C@H](NC(=O)[C@@H]1C=C(c2ccc(F)c(F)c2)CCN1)C(=O)N[C@@H]1CCc2nc(N)ccc21 (single isomer, unassigned) [Compound L069-IS-02] | 20000 ± 3840 | 3.39 ± 0.17 | 15700 ± 1130 | 6930 ± 968 | 3.37 | 1190 ± 162 | 17.4 | 
C[C@H](NC(=O)[C@@H]1C=C(c2ccc(F)cc2F)CCN1)C(=O)N[C@@H]1CCc2nc(N)ccc21 (single isomer, unassigned) [Compound L076-IS-02] | 25900 ± 556 | 5.88 ± 0.27 | 22500 ± 1030 | 6970 ± 1210 | 4.29 ± 0.28 | 1350 ± 423 | 11.6 | 
C[C@H](NC(=O)[C@H]1C[C@H](Cc2ccc(Cl)cc2)CN1)C(=O)NC1CCc2nc(N)ccc21 (stereo partly drawn) [Compound L003, (2R,4S)—N-((2S)-1-((2-amino-6,7-dihydro-5H-cyclopenta[b]pyridin-5-yl)amino)-1-oxopropan-2-yl)-4-(4-chlorobenzyl) pyrrolidine-2-carboxamide] |  |  |  |  |  |  | 5.17 | AUClast ([1]; 1 mg/kg, IV, not fasting): 95060 ± 770 ng·h/mL; Cmax ([1]; 1 mg/kg, IV, not fasting): 25400 ± 1940 ng/mL; T1/2 ([1]; 1 mg/kg, IV, not fasting): 5.84 ± 0.55 h; AUClast ([1]; 1 mg/kg, PO, fasting): 11167 ± 1986 ng·h/mL; Cmax ([1]; 1 mg/kg, PO, fasting): 1777 ± 394 ng/mL; T1/2 ([1]; 1 mg/kg, PO, fasting): 5.89 h
C[C@H](NC(=O)[C@H]1C[C@H](Cc2ccc(F)c(Cl)c2)CN1)C(=O)NC1CCc2nc(N)ccc21 (stereo partly drawn) [Compound L012, (2R,4S)—N-((2S)-1-((2-amino-6,7-dihydro-5H-cyclopenta[b]pyridin-5-yl)amino)-1-oxopropan-2-yl)-4-(3-chloro-4-fluorobenzyl) pyrrolidine-2-carboxamide] |  |  |  |  |  |  | 4.06 | AUClast ([1]; 1 mg/kg, IV, not fasting): 97054 ± 1914 ng·h/mL; Cmax ([1]; 1 mg/kg, IV, not fasting): 26933 ± 1167 ng/mL; T1/2 ([1]; 1 mg/kg, IV, not fasting): 12.0 ± 3.72 h; AUClast ([1]; 1 mg/kg, PO, fasting): 11618 ± 919 ng·h/mL; Cmax ([1]; 1 mg/kg, PO, fasting): 1777 ± 98.2 ng/mL; T1/2 ([1]; 1 mg/kg, PO, fasting): 12.7 h
C[C@H](NC(=O)[C@H]1C[C@H](Cc2cccc(Cl)c2)CN1)C(=O)NC1CCc2nc(N)ccc21 (stereo partly drawn) [Compound L014, (2R,4S)—N-((2S)-1-((2-amino-6,7-dihydro-5H-cyclopenta[b]pyridin-5-yl)amino)-1-oxopropan-2-yl)-4-(3-chlorobenzyl) pyrrolidine-2-carboxamide] |  |  |  |  |  |  | 2.71 | AUClast ([1]; 1 mg/kg, IV, not fasting): 89916 ± 4999 ng·h/mL; Cmax ([1]; 1 mg/kg, IV, not fasting): 24633 ± 167 ng/mL; T1/2 ([1]; 1 mg/kg, IV, not fasting): 7.81 ± 1.16 h; AUClast ([1]; 1 mg/kg, PO, fasting): 13180 ± 3323 ng·h/mL; Cmax ([1]; 1 mg/kg, PO, fasting): 1967 ± 568 ng/mL; T1/2 ([1]; 1 mg/kg, PO, fasting): 12.5 h
C[C@H](NC(=O)[C@H]1CC(C(F)(F)c2ccc(F)cc2)CN1)C(=O)N[C@@H]1CCc2nc(N)ccc21 (stereo partly drawn) [Compound L050, (2R)—N—((S)-1-(((R)-2-amino-6,7-dihydro-5H-cyclopenta[b]pyridin-5-yl)amino)-1-oxopropan-2-yl)-4-(difluoro (4-fluorophenyl)methyl) pyrrolidine-2-carboxamide] |  |  |  |  |  |  | 2.64 | AUClast ([1]; 1 mg/kg, IV, not fasting): 16723 ± 860 ng·h/mL; Cmax ([1]; 1 mg/kg, IV, not fasting): 27167 ± 1299 ng/mL; T1/2 ([1]; 1 mg/kg, IV, not fasting): 2.13 ± 0.25 h; AUClast ([1]; 1 mg/kg, PO, fasting): 3638 ± 335 ng·h/mL; Cmax ([1]; 1 mg/kg, PO, fasting): 1373 ± 162 ng/mL; T1/2 ([1]; 1 mg/kg, PO, fasting): 2.21 ± 0.27 h
Cc1cc(F)ccc1C1=C[C@@H](C(=O)N[C@@H](C)C(=O)N[C@@H]2CCc3nc(N)ccc32)NCC1 [Compound L074-IS-02, (S)-N-((S)-1-(((R)-2-amino-6,7-dihydro-5H-cyclopenta[b]pyridin-5-yl)amino)-1-oxopropan-2-yl)-4-(4-fluoro-2-methylphenyl)-1,2,5,6-tetrahydropyridine-2-carboxamide] |  |  |  |  |  |  | 2.79 | 
C[C@H](NC(=O)[C@@H]1C=C(c2ccc(F)cc2Cl)CCN1)C(=O)N[C@@H]1CCc2nc(N)ccc21 [Compound L075-IS-02, (S)-N-((S)-1-(((R)-2-amino-6,7-dihydro-5H-cyclopenta[b]pyridin-5-yl)amino)-1-oxopropan-2-yl)-4-(2-chloro-4-fluorophenyl)-1,2,5,6-tetrahydropyridine-2-carboxamide] |  |  |  |  |  |  | 4.89 | 
C[C@H](NC(=O)[C@@H]1C=C(c2ccc(F)c(C(F)F)c2)CCN1)C(=O)N[C@@H]1CCc2nc(N)ccc21 [Compound L078-IS-02, (S)—N—((S)-1-(((R)-2-amino-6,7-dihydro-5H-cyclopenta[b]pyridin-5-yl)amino)-1-oxopropan-2-yl)-4-(3-(difluoromethyl)-4-fluorophenyl)-1,2,5,6-tetrahydropyridine-2-carboxamide] |  |  |  |  |  |  | 16.3 | 
C[C@H](NC(=O)[C@@H]1C=C(c2ccc(F)cc2CF)CCN1)C(=O)N[C@@H]1CCc2nc(N)ccc21 [Compound L079-IS-02, (S)—N—((S)-1-(((R)-2-amino-6,7-dihydro-5H-cyclopenta[b]pyridin-5-yl)amino)-1-oxopropan-2-yl)-4-(4-fluoro-2-(fluoromethyl)phenyl)-1,2,5,6-tetrahydropyridine-2-carboxamide] |  |  |  |  |  |  | 2.9 | 
C[C@H](NC(=O)[C@@H]1C=C(c2ccc(F)cc2C(F)F)CCN1)C(=O)N[C@@H]1CCc2nc(N)ccc21 [Compound L080-IS-02, (S)—N—((S)-1-(((R)-2-amino-6,7-dihydro-5H-cyclopenta[b]pyridin-5-yl)amino)-1-oxopropan-2-yl)-4-(2-(difluoromethyl)-4-fluorophenyl)-1,2,5,6-tetrahydropyridine-2-carboxamide] |  |  |  |  |  |  | 2.87 | 
C[C@H](NC(=O)[C@@H]1C=C(c2cccc(Cl)c2)CCN1)C(=O)N[C@@H]1CCc2nc(N)ccc21 [Compound L081-IS-02, (S)—N—((S)-1-(((R)-2-amino-6,7-dihydro-5H-cyclopenta[b]pyridin-5-yl)amino)-1-oxopropan-2-yl)-4-(3-chlorophenyl)-1,2,5,6-tetrahydropyridine-2-carboxamide] |  |  |  |  |  |  | 7.41 | 
C[C@H](NC(=O)[C@H]1C=C(c2ccccc2F)CCN1)C(=O)N[C@@H]1CCc2nc(N)ccc21 [Compound L082, (R)—N—((S)-1-(((R)-2-amino-6,7-dihydro-5H-cyclopenta[b]pyridin-5-yl)amino)-1-oxopropan-2-yl)-4-(2-fluorophenyl)-1,2,5,6-tetrahydropyridine-2-carboxamide] | 24700 ± 1030 | 3.21 ± 0.19 | 18600 ± 1960 | 6110 ± 1210 | 2.85 ± 0.05 | 1430 ± 283 | 8.85 | 
C[C@H](NC(=O)[C@H]1C=C(c2cccc(F)c2)CCN1)C(=O)N[C@@H]1CCc2nc(N)ccc21 [Compound L083, (R)—N—((S)-1-(((R)-2-amino-6,7-dihydro-5H-cyclopenta[b]pyridin-5-yl)amino)-1-oxopropan-2-yl)-4-(3-fluorophenyl)-1,2,5,6-tetrahydropyridine-2-carboxamide] | 16400 ± 936 | 2.71 ± 0.23 | 18000 ± 850 | 3360 ± 778 | 2.97 ± 0.07 | 1090 ± 295 | 10.6 | 
C[C@H](NC(=O)[C@H]1C=C(c2cccc(F)c2F)CCN1)C(=O)N[C@@H]1CCc2nc(N)ccc21 [Compound L084, (R)—N—((S)-1-(((R)-2-amino-6,7-dihydro-5H-cyclopenta[b]pyridin-5-yl)amino)-1-oxopropan-2-yl)-4-(2,3-difluorophenyl)-1,2,5,6-tetrahydropyridine-2-carboxamide] | 26000 ± 1480 | 3.68 ± 0.22 | 18200 ± 929 | 6880 ± 1430 | 3.09 ± 0.05 | 2140 ± 664 | 13.3 | 
Nc1ccc2c(n1)CC[C@H]2NC(=O)[C@@H]1C[C@@H]2C[C@@H]2N1C(=O)[C@H]1C[C@H](Cc2ccc(F)cc2)CN1 [Compound L104-IS-02, (1S,3S,5S)—N—((R)-2-amino-6,7-dihydro-5H-cyclopenta [b]pyridin-5-yl)-2-((2R,4S)-4-(4-fluorobenzyl)pyrrolidine-2-carbonyl)-2-azabicyclo[3.1.0]hexane-3-carboxamide] |  |  |  |  |  |  | 0.97 | 
(2R)—N-((2S)-1-((2-amino-6,7-dihydro-5H-cyclopenta[b]pyridin-5-yl)amino)-1-oxopropan-2-yl)-4-phenyl-1,2,3,6-tetrahydropyridine-2-carboxamide [Compound L023-IS-02] |  |  |  |  |  |  | 3.36 | AUClast ([1]; 1 mg/kg, IV, not fasting): 21567 ± 2996 ng·h/mL; Cmax ([1]; 1 mg/kg, IV, not fasting): 17400 ± 1026 ng/mL; T1/2 ([1]; 1 mg/kg, IV, not fasting): 3.93 ± 0.18 h; AUClast ([1]; 3 mg/kg, PO, fasting): 17996 ± 2579 ng·h/mL; Cmax ([1]; 3 mg/kg, PO, fasting): 4340 ± 162 ng/mL; T1/2 ([1]; 3 mg/kg, PO, fasting): 4.20 ± 0.54 h
